Measured values as given in US20250255848A1, “SUBSTITUTED 6,7-DIHYDRO-5H-BENZO[7]ANNULENE DERIVATIVES, PROCESSES FOR THEIR PREPARATION AND THERAPEUTIC USES THEREOF” (SANOFI, priority 2022, published 2025).
pIC50: −log10 of the molar value.

Target: ERα (Homo sapiens (Human), UniProt P03372)
Test: Estrogen receptor degradation activity: breast cancer cell ERα in cell western assay
Format: cell-based
Details: MCF7 cells; for % Degradation At 0.3 μM: 4 hours, normalised to fulvestrant 0.1 μM and DMSO; for pIC50 / DC50: 4 hours post compound addition, concentration which degrades 50% of the estrogen receptor; for DC50: read-out: Degradation IC50
How it was run: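 MCF7 cells in phenol-red-free medium with 5% charcoal-stripped FBS, treated 4 h with 9-point 1:5 dilutions (0.3-0.0000018 μM final). ERα measured by in-cell western (anti-ER antibody, Alexa 488), normalized to Syto-64 DNA stain; % decrease scaled DMSO to 0.1 μM fulvestrant, IC50 in nM.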

Sequence of ERα (P03372 whole entry): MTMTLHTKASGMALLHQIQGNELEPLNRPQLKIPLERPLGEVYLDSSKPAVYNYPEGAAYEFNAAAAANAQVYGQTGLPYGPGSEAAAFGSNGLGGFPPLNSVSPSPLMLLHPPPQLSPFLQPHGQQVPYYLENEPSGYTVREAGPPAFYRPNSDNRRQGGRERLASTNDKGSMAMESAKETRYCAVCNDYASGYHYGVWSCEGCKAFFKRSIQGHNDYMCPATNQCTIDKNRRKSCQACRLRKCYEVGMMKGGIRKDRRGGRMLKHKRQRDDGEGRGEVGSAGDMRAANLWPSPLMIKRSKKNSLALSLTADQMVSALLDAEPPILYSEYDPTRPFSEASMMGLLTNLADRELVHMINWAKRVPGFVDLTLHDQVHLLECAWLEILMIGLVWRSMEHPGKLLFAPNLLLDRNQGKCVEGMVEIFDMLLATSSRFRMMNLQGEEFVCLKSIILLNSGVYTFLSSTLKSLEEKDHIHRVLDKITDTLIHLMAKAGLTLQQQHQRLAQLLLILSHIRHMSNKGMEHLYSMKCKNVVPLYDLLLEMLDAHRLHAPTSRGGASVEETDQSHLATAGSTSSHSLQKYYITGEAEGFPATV

% Degradation At 0.3 μM [%] | pIC50 | DC50 [nM] | SMILES
91 | 9.30 |  | O=C(O)c1ccc2c(c1)CCCC(c1c(Cl)cccc1OC(F)(F)F)=C2c1ccc(C=C2CN(CCCF)C2)cc1 [Compound 17, 8-(2-chloro-6-(trifluoromethoxy)phenyl)-9-(4-((1-(3-fluoropropyl)azetidin-3-ylidene)methyl)phenyl)-6,7-dihydro-5H-benzo[7]annulene-3-carboxylic acid]
93 | 9.15 |  | Cc1ccc(C(F)F)c(C2=C(c3ccc(C=C4CN(CCCF)C4)cc3)c3ccc(C(=O)O)cc3CCC2)c1 [Compound 57, 8-(2-(difluoromethyl)-5-methylphenyl)-9-(4-((1-(3-fluoropropyl)azetidin-3-ylidene)methyl)phenyl)-6,7-dihydro-5H-benzo[7]annulene-3-carboxylic acid]
91 | 9.30 |  | COc1c(F)cccc1C1=C(c2ccc(C=C3CN(CCCF)C3)cc2)c2ccc(C(=O)O)cc2CCC1 [Compound 40, 8-(3-fluoro-2-methoxyphenyl)-9-(4-((1-(3-fluoropropyl)azetidin-3-ylidene)methyl)phenyl)-6,7-dihydro-5H-benzo[7]annulene-3-carboxylic acid]
91 | 9.52 |  | COc1cccc(C(F)(F)F)c1C1=C(c2ccc(C=C3CN(CCCF)C3)cc2)c2ccc(C(=O)O)cc2CCC1 [Compound 6, 9-(4-((1-(3-fluoropropyl)azetidin-3-ylidene)methyl)phenyl)-8-(2-methoxy-6-(trifluoromethyl)phenyl)-6,7-dihydro-5H-benzo[7]annulene-3-carboxylic acid]
93 | 9.70 |  | O=C(O)c1ccc2c(c1)CCCC(c1ccccc1C(F)F)=C2c1ccc(C=C2CN(CCCF)C2)cc1 [Compound 58, 8-(2-(difluoromethyl)phenyl)-9-(4-((1-(3-fluoropropyl)azetidin-3-ylidene)methyl)phenyl)-6,7-dihydro-5H-benzo[7]annulene-3-carboxylic acid]
94 | 9.15 |  | O=C(O)c1ccc2c(c1)CCCC(c1cccc(Cl)c1OC(F)(F)F)=C2c1ccc(C=C2CN(CCCF)C2)cc1 [Compound 34, 8-(3-chloro-2-(trifluoromethoxy)phenyl)-9-(4-((1-(3-fluoropropyl)azetidin-3-ylidene)methyl)phenyl)-6,7-dihydro-5H-benzo[7]annulene-3-carboxylic acid]
92 | 9.15 |  | Cc1ccc(C2=C(c3ccc(C=C4CN(CCCF)C4)cc3)c3ccc(C(=O)O)cc3CCC2)c(C)c1F [Compound 12, 8-(3-fluoro-2,4-dimethylphenyl)-9-(4-((1-(3-fluoropropyl)azetidin-3-ylidene)methyl)phenyl)-6,7-dihydro-5H-benzo[7]annulene-3-carboxylic acid]
92 | 9.40 |  | Cc1cc(C)c(C2=C(c3ccc(C=C4CN(CCCF)C4)cc3)c3ccc(C(=O)O)cc3CCC2)c(Cl)c1 [Compound 11, 8-(2-chloro-4,6-dimethylphenyl)-9-(4-((1-(3-fluoropropyl)azetidin-3-ylidene)methyl)phenyl)-6,7-dihydro-5H-benzo[7]annulene-3-carboxylic acid]
94 | 9.05 |  | O=C(O)c1ccc2c(c1)CCCC(c1ccc(C(F)(F)F)cc1C1CC1)=C2c1ccc(C=C2CN(CCCF)C2)cc1 [Compound 48, 8-(2-cyclopropyl-4-(trifluoromethyl)phenyl)-9-(4-((1-(3-fluoropropyl)azetidin-3-ylidene)methyl)phenyl)-6,7-dihydro-5H-benzo[7]annulene-3-carboxylic acid]
86 |  | 0.7 | CC1(C)CCC(C2=C(c3ccc(C=C4CN(CCCF)C4)cc3)c3ccc(C(=O)O)cc3CCC2)CC1 [Compound 68, 8-(4,4-dimethylcyclohexyl)-9-(4-((1-(3-fluoropropyl)azetidin-3-ylidene)methyl)phenyl)-6,7-dihydro-5H-benzo[7]annulene-3-carboxylic acid]
91 | 9.40 |  | CCc1cc(C(F)(F)F)ccc1C1=C(c2ccc(C=C3CN(CCCF)C3)cc2)c2ccc(C(=O)O)cc2CCC1 [Compound 25, 8-(2-ethyl-4-(trifluoromethyl)phenyl)-9-(4-((1-(3-fluoropropyl)azetidin-3-ylidene)methyl)phenyl)-6,7-dihydro-5H-benzo[7]annulene-3-carboxylic acid]
93 | 9.22 |  | COc1ccc(C(F)F)c(C2=C(c3ccc(C=C4CN(CCCF)C4)cc3)c3ccc(C(=O)O)cc3CCC2)c1 [Compound 45, 8-(2-(difluoromethyl)-5-methoxyphenyl)-9-(4-((1-(3-fluoropropyl)azetidin-3-ylidene)methyl)phenyl)-6,7-dihydro-5H-benzo[7]annulene-3-carboxylic acid]
96 | 9.22 |  | O=C(O)c1ccc2c(c1)CCCC(c1c(F)cccc1OC(F)(F)F)=C2c1ccc(C=C2CN(CCCF)C2)cc1 [Compound 9, 8-(2-fluoro-6-(trifluoromethoxy)phenyl)-9-(4-((1-(3-fluoropropyl)azetidin-3-ylidene)methyl)phenyl)-6,7-dihydro-5H-benzo[7]annulene-3-carboxylic acid]
94 | 9.30 |  | COc1c(F)ccc(C)c1C1=C(c2ccc(C=C3CN(CCCF)C3)cc2)c2ccc(C(=O)O)cc2CCC1 [Compound 7, 8-(3-fluoro-2-methoxy-6-methylphenyl)-9-(4-((1-(3-fluoropropyl)azetidin-3-ylidene)methyl)phenyl)-6,7-dihydro-5H-benzo[7]annulene-3-carboxylic acid]
92 | 8.07 |  | COc1cc(C2=C(c3ccc(C=C4CN(CCCF)C4)cc3)c3ccc(C(=O)O)cc3CCC2)ccc1C(F)(F)F [Compound 50, 9-(4-((1-(3-fluoropropyl)azetidin-3-ylidene)methyl)phenyl)-8-(3-methoxy-4-(trifluoromethyl)phenyl)-6,7-dihydro-5H-benzo[7]annulene-3-carboxylic acid]
95 | 9.30 |  | O=C(O)c1ccc2c(c1)CCCC(c1ccc(C(F)F)cc1OC(F)(F)F)=C2c1ccc(C=C2CN(CCCF)C2)cc1 [Compound 54, 8-(4-(difluoromethyl)-2-(trifluoromethoxy)phenyl)-9-(4-((1-(3-fluoropropyl)azetidin-3-ylidene)methyl)phenyl)-6,7-dihydro-5H-benzo[7]annulene-3-carboxylic acid]
95 | 9.70 |  | Cc1ccc(F)c(C)c1C1=C(c2ccc(C=C3CN(CCCF)C3)cc2)c2ccc(C(=O)O)cc2CCC1 [Compound 75, 8-(3-fluoro-2,6-dimethylphenyl)-9-(4-((1-(3-fluoropropyl)azetidin-3-ylidene)methyl)phenyl)-6,7-dihydro-5H-benzo[7]annulene-3-carboxylic acid]
92 | 9.15 |  | C[C@H]1CC[C@H](C2=C(c3ccc(C=C4CN(CCCF)C4)cc3)c3ccc(C(=O)O)cc3CCC2)CC1 [Compound 56, 9-(4-((1-(3-fluoropropyl)azetidin-3-ylidene)methyl)phenyl)-8-(trans-4-methylcyclohexyl)-6,7-dihydro-5H-benzo[7]annulene-3-carboxylic acid]
74 |  | 1.3 | O=C(O)c1ccc2c(c1)CCCC(c1ccc(Cl)cc1Cl)=C2c1ccc(C=C2CN(CC(F)CF)C2)cc1 (single isomer, unassigned) [Compound 69, 8-(2,4-dichlorophenyl)-9-(4-((1-(2,3-difluoropropyl)azetidin-3-ylidene)methyl)phenyl)-6,7-dihydro-5H-benzo[7]annulene-3-carboxylic acid]
93 | 9.22 |  | COc1cccc(C2=C(c3ccc(C=C4CN(CCCF)C4)cc3)c3ccc(C(=O)O)cc3CCC2)c1C(F)F [Compound 60, 8-(2-(difluoromethyl)-3-methoxyphenyl)-9-(4-((1-(3-fluoropropyl)azetidin-3-ylidene)methyl)phenyl)-6,7-dihydro-5H-benzo[7]annulene-3-carboxylic acid]
91 | 9.22 |  | COc1ccc(C2=C(c3ccc(C=C4CN(CCCF)C4)cc3)c3ccc(C(=O)O)cc3CCC2)c(C(F)F)c1 [Compound 37, 8-(2-(difluoromethyl)-4-methoxyphenyl)-9-(4-((1-(3-fluoropropyl)azetidin-3-ylidene)methyl)phenyl)-6,7-dihydro-5H-benzo[7]annulene-3-carboxylic acid]
91 | 9.22 |  | COc1cc(C)cc(C)c1C1=C(c2ccc(C=C3CN(CCCF)C3)cc2)c2ccc(C(=O)O)cc2CCC1 [Compound 14, 9-(4-((1-(3-fluoropropyl)azetidin-3-ylidene)methyl)phenyl)-8-(2-methoxy-4,6-dimethylphenyl)-6,7-dihydro-5H-benzo[7]annulene-3-carboxylic acid]
100 | 9.52 |  | Cc1cc(C)c(C2=C(c3ccc(C=C4CN(CCCF)C4)cc3)c3ccc(C(=O)O)cc3CCC2)c(C(F)(F)F)c1 [Compound 72, 8-(2,4-dimethyl-6-(trifluoromethyl)phenyl)-9-(4-((1-(3-fluoropropyl)azetidin-3-ylidene)methyl)phenyl)-6,7-dihydro-5H-benzo[7]annulene-3-carboxylic acid]
93 | 9.30 |  | Cc1cc(C)c(C2=C(c3ccc(C=C4CN(CCCF)C4)cc3)c3ccc(C(=O)O)cc3CCC2)c(C)c1 [Compound 10, 9-(4-((1-(3-fluoropropyl)azetidin-3-ylidene)methyl)phenyl)-8-mesityl-6,7-dihydro-5H-benzo[7]annulene-3-carboxylic acid]
